In assay [1] the target is T1, Prostaglandin G/H synthase 2 (Ovis aries, UniProt P79208).
T1 sequence (P79208 whole entry): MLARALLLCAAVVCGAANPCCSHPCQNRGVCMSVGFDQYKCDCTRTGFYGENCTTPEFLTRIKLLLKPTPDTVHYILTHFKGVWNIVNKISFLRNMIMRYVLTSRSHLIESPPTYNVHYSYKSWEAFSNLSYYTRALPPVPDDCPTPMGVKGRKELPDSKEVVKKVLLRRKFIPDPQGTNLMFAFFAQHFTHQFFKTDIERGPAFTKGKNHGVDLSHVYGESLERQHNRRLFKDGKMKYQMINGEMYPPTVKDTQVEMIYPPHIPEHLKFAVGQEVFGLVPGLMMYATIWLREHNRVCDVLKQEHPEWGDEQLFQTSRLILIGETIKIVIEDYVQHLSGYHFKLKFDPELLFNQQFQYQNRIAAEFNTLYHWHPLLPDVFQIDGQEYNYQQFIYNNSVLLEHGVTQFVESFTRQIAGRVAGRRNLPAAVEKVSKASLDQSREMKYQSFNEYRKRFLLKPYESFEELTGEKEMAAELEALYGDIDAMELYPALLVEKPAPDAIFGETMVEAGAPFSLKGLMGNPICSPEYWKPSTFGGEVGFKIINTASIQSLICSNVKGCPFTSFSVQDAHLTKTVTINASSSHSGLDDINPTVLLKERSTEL

Assay [2] deals with MCF7. The experiment in a line: cells. The format is functional, cell-based. Particulars: Homo sapiens.
In a further assay the target is Tubulin. The format is protein-complex assay, Homo sapiens.
Assay [3] concerns the target T1, Prostaglandin G/H synthase 2. The source holds these as a separate data set.
For another assay, the species on record is Rattus norvegicus. The experiment in a line: animal or person. The format is functional.
The test system of assay [4] is MCF7. The experiment in a line: cells. The format is functional, cell-based. The conditions noted are these: Homo sapiens, MCF7, 48 h.
Assay [5] addresses T2, Prostaglandin G/H synthase 1 (Mus musculus, UniProt P22437).
T2 sequence (P22437 whole entry): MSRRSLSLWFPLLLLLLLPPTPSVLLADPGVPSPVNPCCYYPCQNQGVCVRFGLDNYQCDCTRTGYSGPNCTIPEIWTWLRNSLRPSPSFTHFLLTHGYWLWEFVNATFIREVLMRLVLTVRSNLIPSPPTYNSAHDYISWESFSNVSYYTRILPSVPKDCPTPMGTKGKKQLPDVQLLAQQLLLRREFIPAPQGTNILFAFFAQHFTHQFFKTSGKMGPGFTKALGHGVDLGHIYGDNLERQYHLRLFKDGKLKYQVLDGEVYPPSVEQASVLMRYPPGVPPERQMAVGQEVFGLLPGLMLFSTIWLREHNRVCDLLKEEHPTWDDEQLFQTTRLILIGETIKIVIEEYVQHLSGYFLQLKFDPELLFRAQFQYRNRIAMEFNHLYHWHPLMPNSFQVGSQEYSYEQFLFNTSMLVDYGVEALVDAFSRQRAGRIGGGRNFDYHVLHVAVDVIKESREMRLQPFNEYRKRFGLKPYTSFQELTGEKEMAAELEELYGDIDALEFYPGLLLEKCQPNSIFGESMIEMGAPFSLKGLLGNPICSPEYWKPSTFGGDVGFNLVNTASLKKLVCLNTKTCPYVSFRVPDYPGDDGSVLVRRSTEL

pIC50: −log10 of the molar value.

Consider `[N-]=[N+]=Nc1ccc(C2=C(c3ccccc3)C(=O)OC2)cc1`, for which the pIC50 in assay [1] is 6.71. `Cc1ccc(-c2cc(C(F)(F)F)nn2-c2ccc(N=[N+]=[N-])cc2)cc1`: the pIC50 in assay [1] was 5.81. As to `COc1ccc(-c2coc(=O)n2-c2cc(OC)c(OC)c(OC)c2)cc1N`, in the assay on MCF7 [2], the negative logarithm of the IC50 (pIC50) is 5.74.

The compound `COc1ccc([C@H]2OCO[C@@H]2c2cc(OC)c(OC)c(OC)c2)cc1O` showed a pIC50 on Tubulin of less than 4.30.

In the case of `COc1ccc(-c2oc(O)nc2-c2cc(OC)c(OC)c(OC)c2)cc1N`, the pIC50 in the assay with MCF7 [2] is 5.31. `CC1C(c2ccc(F)cc2)=C(c2ccc(S(C)(=O)=O)cc2)ON1C` (stereo not given) had a pIC50 in assay [3] of 7.50. For `CS(=O)(=O)c1ccc(-c2snnc2-c2ccc(F)cc2)cc1`, it took a dose of 0.7 mg/kg to reach the 50% effect level in the assay listed under Rattus norvegicus (ED50). `COC(=O)c1ccc(-n2nc(C(F)(F)F)cc2-c2cc(OC)c(OC)c(OC)c2)cc1` had a pIC50 with MCF7 [4] of 5.89. In turn, `COc1ccc([C@@H]2OCO[C@H]2c2cc(OC)c(OC)c(OC)c2)cc1O` gave a pIC50 at Tubulin of 5.22 to 5.40. `CC1(C)OC(c2ccc(S(N)(=O)=O)cc2)=C(c2cccc(F)c2)C1=O` [POLMACOXIB] showed a negative logarithm of the IC50 (pIC50) in assay [5] of 8.52.

Broadly, the pIC50 is −log10 of the IC50, conventionally taken in molar units. The term ED50 denotes the midpoint of the dose-response relation. Low values mean an effect at a small dose, high ones a need for a large dose.

Values taken from ChEMBL document CHEMBL4325888, “Medicinal chemistry of vicinal diaryl scaffold: A mini review” (Eur J Med Chem, 2019).
